{"source": "patent US10981927B2", "about": "“Bioactive compounds” (priority 2014, dated 2021)", "key": {"[1]": {"experiment": "acute toxicity in mice by intraperitoneal injection", "format": "in vivo", "conditions": "mouse, in vivo, ip, intraperitoneal injection", "procedure": "(§1) No effects were recorded at 500 or 700 μg/kg. […] Furthermore, the onset of symptoms of toxicity was much slower with the compound I than with other cyclic imines. Structure-activity relationships among cyclic imines, both in terms of acute toxicity and effects on neuromuscular transmission, point to the importance of the imine moiety in the mode of action (Munday (2008)). […] This toxicity profile prompted further investigations into the use of the compound I as an anticancer therapeutic or synergist for Bcl-2 antagonists such as the compound designated ABT-737: […]"}, "mice [2]": {"test_system": "mice", "experiment": "acute toxicity in mice by intraperitoneal injection", "format": "in vivo", "procedure": "as §1"}, "P388 cells": {"test_system": "P388 cells", "experiment": "in vitro dose-response (toxicity) against P388 cells", "format": "cell-based", "procedure": "(§2) FIG. 2. Dose response curves for the compound I designated portimine against P388 (▴) and Vero (▪) cells over 72 hours exposure.\nas §1"}, "Vero cells": {"test_system": "Vero cells", "experiment": "in vitro dose-response (toxicity) against Vero cells", "format": "cell-based", "procedure": "as §2, §1"}, "caspase-3 in P388 cells": {"test_system": "caspase-3 in P388 cells", "experiment": "activation of caspase-3 in P388 cells", "format": "cell-based", "conditions": "after 12 hours of exposure", "procedure": "as §1"}, "Jurkat T-lymphoma cells": {"test_system": "Jurkat T-lymphoma cells", "experiment": "viability assay (propidium iodide, flow cytometry), Jurkat cells", "conditions": "for CC50: Homo sapiens, Jurkat, 48 h; for cytotoxicity: Jurkat cells, 48 hours, over the concentration range tested", "procedure": "(§3) Jurkat T-lymphocyte-like, pro-myelocytic HL60 and erythroleukemic K562 cell lines were obtained from the American Type Culture Collection (ATCC, Rockville, Md., USA). The B9 Jurkat cell clone that overexpresses Bcl-2 was previously generated and characterised (Thomson et al (2005)). Jurkat and HL60 cells were grown in culture using RPMI 1640 media supplemented with 10% FBS, 100 units/mL penicillin and 100 μg/mL streptomycin at 37° C. in a humidified atmosphere with 5% CO2. K562 cells were grown in culture using Iscoves DMEM media supplemented with 10% FBS, 100 units/mL penicillin and 100 μg/mL streptomycin at 37° C. in a humidified atmosphere with 5% CO2.\n(§4) All cells were treated at 1×10^6 per mL in media. Fresh stock solutions of ABT-737 were prepared in sterile DMSO and stored at −20° C. Stock solutions of 50 mM were then further diluted with DMSO and added to cells, maintaining the final concentration of DMSO constant at 0.1%. Jurkat and K562 cells were treated with 200 nM ABT-737, HL60 cells were treated with 50 nM ABT-737. Stocks of the compound I, pinnatoxin F and pinnatoxin G (1000×) were prepared in sterile DMSO and stored at −20° C. Concentrations were calculated using molecular weights of 401 (the compound I), 764 (pinnatoxin F) and 693 (pinnatoxin G). The final concentration of DMSO was kept constant at 0.1%.\n(§5) Integrity of cell plasma membranes was assessed using propidium iodide (PI) staining at 48 hours. Cells (0.2×10^6) were loaded with 1 μg of propidium iodide (1 μL of a 1 mg/mL stock in water per 200 μL of cells). PI uptake by non-viable (stained, PI positive) cells was measured using the FC500 MPL Flow Cytometry system (Beckman Coulter Inc.). Viable cells were defined as PI-negative cells expressed as a percentage of the 10,000 cells analysed."}, "[3]": {"test_system": "Bcl-2 overexpressing Jurkat cells (B9 clone)", "experiment": "cells", "procedure": "as §3, §4, §5"}, "HL60 cells": {"test_system": "HL60 cells", "experiment": "viability assay (propidium iodide, flow cytometry), HL60 cells", "conditions": "for CC50: Homo sapiens, HL-60, 48 h", "procedure": "as §3, §4, §5"}, "K562 cells": {"test_system": "K562 cells", "experiment": "viability assay (propidium iodide, flow cytometry), K562 cells", "procedure": "as §3\nAll cells were treated at 1×10^6 per mL in media. Fresh stock solutions of ABT-737 were prepared in sterile DMSO and stored at −20° C. Stock solutions of 50 mM were then further diluted with DMSO and added to cells, maintaining the final concentration of DMSO constant at 0.1%. […] Concentrations were calculated using molecular weights of 401 (the compound I), 764 (pinnatoxin F) and 693 (pinnatoxin G). […]\nas §5, with “Cells (0.2×10^6) were loaded with 1 μg of propidium iodide (1 μL of a 1 mg/mL stock in water per 200 μL of cells).” left out"}, "[4]": {"test_system": "Caspase-3-like DEVDase activity in wild-type Jurkat cells", "experiment": "caspase assay (DEVD-AMC), wild-type Jurkat cells", "format": "cell-based, human", "procedure": "(§6) Six hours after treatment 1×10^6 cells were harvested and stored as cell pellets at −80° C. Cell pellets were resuspended in 15 μL PBS, transferred to a 96-well fluorescent plate, and 95 μL buffer (100 mM HEPES, 10% sucrose, 5 mM DTT, 0.1% NP-40 and 0.1% CHAPS at pH 7.25) containing 50 μM DEVD-AMC. The rate of release of fluorescent AMC was monitored at 37° C. (λex 390 nm, λem 460 nm). Data are expressed as a fold increase in activity over vehicle-treated cells incubated for the same time."}, "[5]": {"test_system": "Caspase-3-like DEVDase activity in Bcl-2 overexpressing Jurkat cells", "experiment": "caspase assay (DEVD-AMC), Bcl-2 overexpressing Jurkat cells", "format": "cell-based, human", "procedure": "as §6"}, "Jurkat cells": {"test_system": "Jurkat cells", "experiment": "phosphatidylserine assay (Annexin V-FITC / propidium iodide), Jurkat cells", "format": "cell-based, human", "procedure": "Phosphatidylserine (PS) becomes exposed on the outer leaflet of the plasma membrane during apoptosis. PS binds strongly with Annexin-V, which when labelled with a fluorescent probe such as fluorescein isothiocyanate (FITC), allows the detection of cells undergoing apoptosis. Treated cells (0.1×10^6) were harvested and centrifuged at 10,000×g for 1 minute. The supernatant was removed and cells were resuspended in 100 μL Annexin-V Binding Buffer (10 mM HEPES pH 7.4, 140 mM NaCl, 2.5 mM CaCl2). Cells were stained by adding 1 μL Annexin-V FITC conjugate, and then incubated in the dark at room temperature for 15 minutes. […] Viable cells (PI negative) that stained with Annexin-V FITC were termed PS positive."}, "mice [6]": {"test_system": "mice", "conditions": "cited from earlier work; for LD50 reported for other cyclic imines: intraperitoneal injection"}}, "note": "Read-outs that look alike come from different tables or passages of the source."}
{"smiles": "C=CC1=C[C@@H]2[C@@H]3O[C@]4(CC[C@H](O4)[C@@H](C)C[C@@H](O)C3=O)C[C@H](O)C3=NCC[C@@]32CC1", "note": "(relative stereo) [compound I, (4R,6S,9R,10R,12S,14R,14aR,18aS)-rel-16-ethenyl-1,2,4,5,7,8,9,10,11,12, 14,14a,17,18-tetradecahydro-4,12-dihydroxy-10-methyl-)13H-6,9:6,14-diepoxybenzo[2,3]cyclotetradeca[1,2-b]pyrrol-13-one]", "values": [{"measurement": "LD50", "setting": "[1]", "result": 1.57, "unit": "mg/kg"}, {"measurement": "onset of symptoms of toxicity", "setting": "mice [2]; compared with other cyclic imines", "result": "much slower"}, {"measurement": "effects recorded at sublethal doses", "setting": "mice [2]; intraperitoneal injection, 500 or 700 μg/kg", "result": "No effects"}, {"measurement": "EC50", "setting": "P388 cells; Mus musculus, P388 cells, 72 hours exposure", "result": 2.7, "unit": "nM"}, {"measurement": "cells killed", "setting": "P388 cells; P388 cells, 10 nM, 72 hours of exposure", "result": "> 90", "unit": "%"}, {"measurement": "cells killed", "setting": "Vero cells; 10 nM, 72 hours of exposure", "result": "> 90", "unit": "%"}, {"measurement": "EC50", "setting": "Vero cells; Chlorocebus sabaeus, 72 hours exposure", "result": 3, "unit": "nM"}, {"measurement": "activation of caspase-3", "setting": "caspase-3 in P388 cells", "result": "observed"}, {"measurement": "CC50", "setting": "Jurkat T-lymphoma cells; read-out: LC50, Jurkat cells, 48 hours, without ABT-737", "result": 6, "unit": "nM"}, {"measurement": "CC50", "setting": "Jurkat T-lymphoma cells; read-out: LC50, wild-type Jurkat cells, 48 hours, with 200 nM ABT-737", "result": 1.4, "unit": "nM"}, {"measurement": "CC50", "setting": "[3]; Homo sapiens, Jurkat, 48 h, read-out: LC50", "result": 2.4, "unit": "nM"}, {"measurement": "cell death", "setting": "[3]; Jurkat cells overexpressing Bcl-2, 48 hours, without ABT-737, up to highest concentrations tested", "result": "unable to trigger cell death"}, {"measurement": "CC50", "setting": "HL60 cells; read-out: LC50, HL60 cells, 48 h, with 50 nM ABT-737", "result": 0.8, "unit": "nM"}, {"measurement": "CC50", "setting": "HL60 cells; read-out: LC50, HL60 cells, 48 h, without ABT-737", "result": 34, "unit": "nM"}, {"measurement": "CC50", "setting": "K562 cells; Homo sapiens, K562, 48 h, read-out: LC50", "result": 6.7, "unit": "nM"}, {"measurement": "sensitivity of K562 cells", "setting": "K562 cells; K562 cells, 48 h, without ABT-737", "result": "relatively resistant"}, {"measurement": "caspase activity time course", "setting": "[4]; Jurkat cells, 50 nM portimine", "result": "steady increase in caspase activity over the 5 hours"}, {"measurement": "caspase activation", "setting": "[4]; wild-type Jurkat cells, increasing concentrations, 6 hours", "result": "dose-dependent increase"}, {"measurement": "increase in caspase activity", "setting": "[5]; 50 nM portimine in combination with 200 nM ABT-737", "result": 60, "unit": "fold"}, {"measurement": "caspase activity", "setting": "[5]; any concentration, 6 hours", "result": "no caspase activity"}, {"measurement": "time at which annexin V positive cells are evident", "setting": "Jurkat cells; 50 nM portimine", "result": 2, "unit": "h"}, {"measurement": "cells annexin V positive", "setting": "Jurkat cells; 6 hours", "result": "up to 50%"}, {"measurement": "necrosis", "setting": "Jurkat cells; annexin V / propidium iodide staining", "result": "no indication of significant necrosis"}]}
{"smiles": "C=CC1=C[C@@H]2[C@@H]3O[C@]4(C[C@H]5CCC[C@@]6(CC[C@@]7(O[C@@H](CC[C@@]7(C)O)CC(=C)CCCC7=NC[C@H](C)[C@@H](C)C[C@@]72CC1)O6)O5)C[C@@H](C)[C@@H](O)[C@H]3O4", "note": "[pinnatoxin G, reference compound]", "values": [{"measurement": "cytotoxicity", "setting": "Jurkat T-lymphoma cells", "result": "little cytotoxicity"}]}
{"smiles": "C=C1CCCC2=NCC(C)C(C)CC23CCC(C2C=C(C)C(=O)O2)=C(C)C3/C=C(/C)C(O)CC2CCC3(CCC4(OC(CCC4(C)O)C1)O3)O2", "note": "(centres unmarked) [desmethyl spirolide C]", "values": [{"measurement": "LD50 reported for other cyclic imines", "setting": "mice [6]", "result": 0.0069, "unit": "mg/kg"}]}
{"smiles": "C=C1CCCC2=NC[C@H](C)[C@@H](C)C[C@@]23CCC([C@@H]2C=C(C)C(=O)O2)=C(C)[C@@H]3/C=C(\\C)[C@@H](O)C[C@H]2O[C@@]3(C[C@H]2C)O[C@@H](CC[C@@]3(C)O)C1", "note": "[spirolide H]", "values": [{"measurement": "toxicity to mice relative to the compound I", "setting": "mice [6]; Roach et al (2009)", "result": "even less toxic to mice than the compound I"}]}
{"smiles": "CN(C)CC[C@H](CSc1ccccc1)Nc1ccc(S(=O)(=O)NC(=O)c2ccc(N3CCN(Cc4ccccc4-c4ccc(Cl)cc4)CC3)cc2)cc1[N+](=O)[O-]", "note": "[ABT-737, 4-[4-[(4′-chloro[1,1′-biphenyl]-2-yl)methyl]-1-piperazinyl]-N-[[4-[[(1R)-3-(dimethylamino)-1-[(phenylthio)methyl]propyl]amino]-3-nitrophenyl]sulfonyl]-benzamide, reference compound]", "values": [{"measurement": "direct cytotoxicity", "setting": "[3]", "result": "not directly cytotoxic"}, {"measurement": "sensitivity of HL60 cells", "setting": "HL60 cells; HL60 cells, ABT-737 alone", "result": "particularly sensitive"}]}
{"smiles": "C=C1CCCC2=NC[C@H](C)[C@@H](C)C[C@@]23CCC([C@@H]2CCC(=O)O2)=C[C@@H]3[C@@H]2O[C@@]3(C[C@@H](C)C[C@H]2O3)C[C@@H]2O[C@]3(CC[C@@]4(O[C@@H](CC[C@@]4(C)O)C1)O3)C[C@H](C)[C@@H]2O", "note": "[pinnatoxin F, reference compound]", "values": [{"measurement": "EC50", "setting": "P388 cells; P388 cells in vitro", "result": "> 1000", "unit": "nM"}, {"measurement": "cytotoxicity", "setting": "Jurkat T-lymphoma cells", "result": "little cytotoxicity"}, {"measurement": "LD50 reported for other cyclic imines", "setting": "mice [6]", "result": 0.016, "unit": "mg/kg"}]}
{"smiles": "CC1=C[C@@H](C2=C(C)[C@@H]3/C=C(\\C)[C@@H](O)CC[C@@H]4C[C@@H](C)[C@@H](O4)/C(C)=C/CCC4=NCCC[C@@]43CC2)OC1=O", "note": "[gymnodimine]", "values": [{"measurement": "LD50 reported for other cyclic imines", "setting": "mice [6]", "result": 0.096, "unit": "mg/kg"}]}
